According to ChEMBL document CHEMBL4483862, “Open-source discovery of chemical leads for next-generation chemoprotective antimalarials” (2018):

Tested on: Plasmodium berghei
Test: Luciferase/luciferin-expressing antifolate-resistant parasites were used to infect a culture of HepG2 cells that were pre-incubated with compounds. Infected hepatocytes emit light due to the luciferase reaction. Assay results are presented as the percent inhibition of light emission compared to control. […]
Format: functional
Settings: sporozoite; for IC90: read-out: LUCIFERASE INFECTION ASSAY - IC90

SMILES	IC90	further results
Oc1cccc(-c2cnc3cnc(-c4cc5ccccc5s4)cn23)c1	8.34 µM	IC50 (HEPG2TOX_HILL_SLOPE 18.8, HEPG2TOX_R_SQUARED 0.771, PBLUC_HILL_SLOPE 3.35, PBLUC_R_SQUARED 0.418, read-out: LUCIFERASE INFECTION ASSAY - IC50): 4.33 µM
CC1=C2CCCC2CC/C1=N\NC(N)=O (configuration not stated)	> 15.9 µM	IC50 (HEPG2TOX_HILL_SLOPE 20.4, HEPG2TOX_R_SQUARED 0.643, PBLUC_HILL_SLOPE 11.7, PBLUC_R_SQUARED 0.0908, read-out: LUCIFERASE INFECTION ASSAY - IC50): 14.9 µM
CC(C)Oc1ccc(Nc2nccc3[nH]c(-c4ccccc4)cc23)cc1	4.19 µM	IC50 (HEPG2TOX_HILL_SLOPE 24.7, HEPG2TOX_R_SQUARED 0.868, PBLUC_HILL_SLOPE 10.9, PBLUC_R_SQUARED 0.493, read-out: LUCIFERASE INFECTION ASSAY - IC50): 3.42 µM
C(=C(c1nc2ccccc2s1)c1nc2ccccc2s1)c1cccnc1	9.07 µM	IC50 (HEPG2TOX_HILL_SLOPE 18.8, HEPG2TOX_R_SQUARED 0.503, PBLUC_HILL_SLOPE 12.3, 18.3, PBLUC_R_SQUARED 0.0559, 0.217, read-out: LUCIFERASE INFECTION ASSAY - IC50): 7.82 µM
Cc1cnc(NC(=O)c2ccc3nccnc3c2)s1	> 10 µM	IC50 (HEPG2TOX_HILL_SLOPE 19.6, HEPG2TOX_R_SQUARED 0.459, read-out: LUCIFERASE INFECTION ASSAY - IC50): > 10 µM
N#Cc1cc(-c2ccc(Cl)cc2)cnc1OC(=O)c1ccc(Cl)cc1	> 8.94 µM	IC50 (HEPG2TOX_HILL_SLOPE 24.3, HEPG2TOX_R_SQUARED 0.913, PBLUC_HILL_SLOPE 3.24, PBLUC_R_SQUARED 0.477, read-out: LUCIFERASE INFECTION ASSAY - IC50): 6.19 µM
Cc1nn(-c2ccc(Cl)cc2)c2sc(C(=O)NCC3(N(C)C)CCCCC3)cc12	5.31 µM	IC50 (HEPG2TOX_HILL_SLOPE 22.9, HEPG2TOX_R_SQUARED 0.594, PBLUC_HILL_SLOPE 11.3, PBLUC_R_SQUARED 0.837, read-out: LUCIFERASE INFECTION ASSAY - IC50): 4.37 µM
Cc1nn(-c2ccccc2)c(Sc2nc3ccccc3s2)c1/C=N/N1CCN(c2ccccn2)CC1	7.21 µM	IC50 (HEPG2TOX_HILL_SLOPE 19.8, HEPG2TOX_R_SQUARED 0.361, PBLUC_HILL_SLOPE 5.19, PBLUC_R_SQUARED 0.522, read-out: LUCIFERASE INFECTION ASSAY - IC50): 4.72 µM
CC(C)C(Nc1ccc(C(F)(F)F)cc1Cl)C(=O)Nc1nc(-c2ccc(F)cc2)cs1 (configuration not stated)	5.28 µM	IC50 (HEPG2TOX_HILL_SLOPE 19.1, HEPG2TOX_R_SQUARED 0.637, PBLUC_HILL_SLOPE 12.2, PBLUC_R_SQUARED 0.325, read-out: LUCIFERASE INFECTION ASSAY - IC50): 4.41 µM
COc1ccc(Cc2nc(Oc3ccc(C(C)=O)cc3OC)c3c4c(sc3n2)CCC4)cc1OC	> 10 µM	IC50 (HEPG2TOX_HILL_SLOPE 23.6, HEPG2TOX_R_SQUARED 0.901, PBLUC_HILL_SLOPE 2.45, PBLUC_R_SQUARED 0.768, read-out: LUCIFERASE INFECTION ASSAY - IC50): 4.61 µM
CCC(CO)Nc1ccc2ncc(Br)n2n1 (configuration not stated)	> 11.6 µM	IC50 (HEPG2TOX_HILL_SLOPE 18.2, HEPG2TOX_R_SQUARED 0.907, PBLUC_HILL_SLOPE 0.763, PBLUC_R_SQUARED 0.712, read-out: LUCIFERASE INFECTION ASSAY - IC50): 4.83 µM
FC(F)(F)c1cccc(-c2cc3c(Nc4ccc5c(c4)OCCO5)nccc3[nH]2)c1	5.7 µM	IC50 (HEPG2TOX_HILL_SLOPE 20.2, HEPG2TOX_R_SQUARED 0.64, PBLUC_HILL_SLOPE 4.68, PBLUC_R_SQUARED 0.558, read-out: LUCIFERASE INFECTION ASSAY - IC50): 3.56 µM
CNC(=O)C1CN(C(=O)c2oc3ccc(OC)cc3c2C)c2ccccc2O1 (configuration not stated)	> 10 µM	IC50 (HEPG2TOX_HILL_SLOPE 21.4, HEPG2TOX_R_SQUARED 0.941, read-out: LUCIFERASE INFECTION ASSAY - IC50): > 10 µM
Cc1nn(C(=O)Nc2cccc(C(F)(F)F)c2)c(C)c1Sc1ccc(C(F)(F)F)cn1	> 7.17 µM	IC50 (HEPG2TOX_HILL_SLOPE 21.1, HEPG2TOX_R_SQUARED 0.715, PBLUC_HILL_SLOPE 11, PBLUC_R_SQUARED 0.14, read-out: LUCIFERASE INFECTION ASSAY - IC50): 6.09 µM
CCCCCCNC(=S)c1c(-c2ccc(F)cc2)c2c3n(c(COc4cc(C)ccc4C(C)C)nn13)CCCC2	8.92 µM	IC50 (HEPG2TOX_HILL_SLOPE 19.8, 4.67, HEPG2TOX_R_SQUARED 0.943, 0.975, PBLUC_HILL_SLOPE 3.99, PBLUC_R_SQUARED 0.689, read-out: LUCIFERASE INFECTION ASSAY - IC50): 5.14 µM
Cc1nc(N(C)Cc2c(C)nn(C3CCS(=O)(=O)C3)c2C)c2c(-c3ccccc3)csc2n1 (configuration not stated)	> 10 µM	IC50 (HEPG2TOX_HILL_SLOPE 23.3, HEPG2TOX_R_SQUARED 0.0131, PBLUC_HILL_SLOPE 4.31, PBLUC_R_SQUARED 0.318, read-out: LUCIFERASE INFECTION ASSAY - IC50): 6.76 µM

SMILES	IC90	further results
CCOC(=O)c1sc(NC(=O)Nc2ccc(Cl)c(Cl)c2)cc1C	2.36 µM	IC50 (HEPG2TOX_HILL_SLOPE 22.1, HEPG2TOX_R_SQUARED 0.877, PBLUC_HILL_SLOPE 3.44, PBLUC_R_SQUARED 0.676, read-out: LUCIFERASE INFECTION ASSAY - IC50): 1.25 µM
Fc1cccc(NC(=S)NC2CCCCCCCCCCC2)c1	4.49 µM	IC50 (HEPG2TOX_HILL_SLOPE 19.2, HEPG2TOX_R_SQUARED 0.924, PBLUC_HILL_SLOPE 9.11, PBLUC_R_SQUARED 0.436, read-out: LUCIFERASE INFECTION ASSAY - IC50): 3.53 µM
CCOC(=O)/C(=C\c1cccc(F)c1)C1=Nn2c(nnc2-c2ccc(OC)cc2)SC1	6.43 µM	IC50 (HEPG2TOX_HILL_SLOPE 19.5, HEPG2TOX_R_SQUARED 0.849, PBLUC_HILL_SLOPE 122, PBLUC_R_SQUARED 0.536, read-out: LUCIFERASE INFECTION ASSAY - IC50): 6.31 µM
Clc1ccc(-c2cc(-c3csc(Nc4ccccc4Cl)n3)on2)c(Cl)c1	> 7.81 µM	IC50 (HEPG2TOX_HILL_SLOPE 18.2, HEPG2TOX_R_SQUARED 0.802, PBLUC_HILL_SLOPE 3.06, PBLUC_R_SQUARED 0.131, read-out: LUCIFERASE INFECTION ASSAY - IC50): 7.18 µM
COc1cccc(C(=O)CC2C(=O)Nc3ccccc32)c1 (configuration not stated)	11.4 µM	IC50 (HEPG2TOX_HILL_SLOPE 18.2, HEPG2TOX_R_SQUARED 0.892, PBLUC_HILL_SLOPE 11.5, PBLUC_R_SQUARED 0.65, read-out: LUCIFERASE INFECTION ASSAY - IC50): 9.38 µM
CCc1cccc(NS(=O)(=O)c2ccc(-n3ncc(Cl)c(Cl)c3=O)cc2)c1	9.42 µM	IC50 (HEPG2TOX_HILL_SLOPE 22.4, HEPG2TOX_R_SQUARED 0.361, PBLUC_HILL_SLOPE 19.8, PBLUC_R_SQUARED 0.355, read-out: LUCIFERASE INFECTION ASSAY - IC50): 8.43 µM
Cc1cc(C(=O)Cn2c(CO)nc3ccccc32)c(C)n1Cc1ccco1	> 10 µM	IC50 (HEPG2TOX_HILL_SLOPE 21, HEPG2TOX_R_SQUARED 0.739, PBLUC_HILL_SLOPE 1.98, PBLUC_R_SQUARED 0.61, read-out: LUCIFERASE INFECTION ASSAY - IC50): 3.71 µM
CCn1c2ccccc2c2cc(CN(C)C(=O)Cn3nnc4ccccc43)ccc21	2.08 µM	IC50 (HEPG2TOX_HILL_SLOPE 27.9, HEPG2TOX_R_SQUARED 0.506, PBLUC_HILL_SLOPE 3.75, PBLUC_R_SQUARED 0.455, read-out: LUCIFERASE INFECTION ASSAY - IC50): 1.16 µM
CCN1C(=O)N(CCc2ccccc2)C2(CCN(Cc3cccc(OC)c3)CC2)C1=O	> 7.83 µM	IC50 (HEPG2TOX_HILL_SLOPE 18.8, HEPG2TOX_R_SQUARED 0.873, read-out: LUCIFERASE INFECTION ASSAY - IC50): > 7.83 µM
COc1ccccc1C(=O)Nc1cc(-c2cn3cccnc3n2)ccc1C	> 10 µM	IC50 (HEPG2TOX_HILL_SLOPE 18.3, HEPG2TOX_R_SQUARED 0.752, PBLUC_HILL_SLOPE 13.2, PBLUC_R_SQUARED 0.331, read-out: LUCIFERASE INFECTION ASSAY - IC50): 9.08 µM
O=C(Cn1ncc(Cl)c(Cl)c1=O)NCC(=O)Nc1ccc(F)c(F)c1F	6.18 µM	IC50 (HEPG2TOX_HILL_SLOPE 18.2, HEPG2TOX_R_SQUARED 0.93, PBLUC_HILL_SLOPE 2.22, PBLUC_R_SQUARED 0.782, read-out: LUCIFERASE INFECTION ASSAY - IC50): 2.3 µM
CCN(CC)S(=O)(=O)c1ccc(Cl)c(NC(=O)COC(=O)c2c3c(nc4ccccc24)CCC(C)C3)c1 (configuration not stated)	4.21 µM	IC50 (HEPG2TOX_HILL_SLOPE 20.1, HEPG2TOX_R_SQUARED 0.334, PBLUC_HILL_SLOPE 11.1, PBLUC_R_SQUARED 0.597, read-out: LUCIFERASE INFECTION ASSAY - IC50): 3.46 µM
O=C1C=CC(=O)N1c1ccc(C2CCCCC2)cc1	11.3 µM	IC50 (HEPG2TOX_HILL_SLOPE 18, HEPG2TOX_R_SQUARED 0.917, PBLUC_HILL_SLOPE 2, PBLUC_R_SQUARED 0.694, read-out: LUCIFERASE INFECTION ASSAY - IC50): 3.78 µM
Cn1c(-c2cccc(F)c2)nc2cnc(-c3cccc(Cl)c3)cc21	> 10 µM	IC50 (HEPG2TOX_HILL_SLOPE 19.5, HEPG2TOX_R_SQUARED 0.312, read-out: LUCIFERASE INFECTION ASSAY - IC50): > 10 µM
Nc1cccc(-c2ccnc3n[nH]c(-c4cccc(Cl)c4)c23)c1	7.12 µM	IC50 (HEPG2TOX_HILL_SLOPE 22.1, HEPG2TOX_R_SQUARED 0.878, PBLUC_HILL_SLOPE 1.59, PBLUC_R_SQUARED 0.529, read-out: LUCIFERASE INFECTION ASSAY - IC50): 1.79 µM
